# Tests used:
# Human alphaherpesvirus 1 [1] = assay: Antiherpes activity was tested as percent of control of plaque-formation against ACG (S1) virus by 5 uM of the compound; assay type: functional, acycloguanosine resistant strain
# Human alphaherpesvirus 1 [2] = assay: Antiherpes activity was tested as percent of control of plaque-formation against ACG (Tr7) virus by 5 uM of the compound; assay type: functional, acycloguanosine resistant strain
# Human alphaherpesvirus 1 [3] = assay: Antiherpes activity was tested as percent of control of plaque-formation against BVdUr virus by 5 uM of the compound; assay type: functional, bromovinyl deoxyuridine resistant strain
# Human alphaherpesvirus 1 [4] = assay: Antiherpes activity was tested as percent of control of plaque-formation against HSV-1 (KOS) virus by 5 uM of the compound; assay type: functional
# [5] = Antiherpes activity was tested as percent of control of plaque-formation against PFAr virus by 5 uM of the compound; assay type: functional, Herpes simplex virus unknown type
# Human alphaherpesvirus 1 [6] = assay: Antiherpes activity was tested as percent of control of plaque-formation against ACG (S1) virus by 30 uM of the compound; assay type: functional, acycloguanosine resistant strain
# Human alphaherpesvirus 1 [7] = assay: Antiherpes activity was tested as percent of control of plaque-formation against ACG (Tr7) virus by 30 uM of the compound; assay type: functional, acycloguanosine resistant strain
# Human alphaherpesvirus 1 [8] = assay: Antiherpes activity was tested as percent of control of plaque-formation against BVdUr virus by 30 uM of the compound; assay type: functional, bromovinyl deoxyuridine resistant strain
# Human alphaherpesvirus 2 [9] = assay: Antiherpes activity was tested as percent of control of plaque-formation against HSV-2 (333) virus by 30 uM of the compound; assay type: functional
# Human alphaherpesvirus 1 [10] = assay: Antiherpes activity was tested as percent of control of plaque-formation against HSV-1 (CL101) virus by 30 uM of the compound; assay type: functional
# Human alphaherpesvirus 1 [11] = assay: Antiherpes activity was tested as percent of control of plaque-formation against HSV-1 (KOS) virus by 30 uM of the compound; assay type: functional
# Human alphaherpesvirus 1 [12] = assay: Antiherpes activity was tested as percent of control of plaque-formation against ACG (S1) virus by 100 uM of the compound; assay type: functional, acycloguanosine resistant strain
# Human alphaherpesvirus 1 [13] = assay: Antiherpes activity was tested as percent of control of plaque-formation against ACG (Tr7) virus by 100 uM of the compound; assay type: functional, acycloguanosine resistant strain
# Human alphaherpesvirus 1 [14] = assay: Antiherpes activity was tested as percent of control of plaque-formation against BVdUr virus by 100 uM of the compound; assay type: functional, bromovinyl deoxyuridine resistant strain
# Human alphaherpesvirus 2 [15] = assay: Antiherpes activity was tested as percent of control of plaque-formation against HSV-2 (333) virus by 100 uM of the compound; assay type: functional
# Human alphaherpesvirus 2 [16] = assay: Antiherpes activity was tested as percent of control of plaque-formation against HSV-2 (CEU-G) virus by 100 uM of the compound; assay type: functional
# Human alphaherpesvirus 2 [17] = assay: Binding affinity against HSV-2(333); assay type: functional, organism-based
# Human alphaherpesvirus 1 [18] = assay: Antiherpes activity was tested as percent of control of plaque-formation against HSV-1 (CL101) virus by 100 uM of the compound; assay type: functional
# Human alphaherpesvirus 1 [19] = assay: Antiherpes activity was tested as percent of control of plaque-formation against HSV-1 (KOS) virus by 100 uM of the compound; assay type: functional
# Human alphaherpesvirus 1 [20] = assay: Binding affinity against HSV-1(KOS); assay type: functional, organism-based
# [21] = Antiherpes activity was tested as percent of control of plaque-formation against PFAr virus by 100 uM of the compound; assay type: functional, Herpes simplex virus unknown type
structure (smiles),measurement,setting,value
Nc1nc2c(ncn2COCCO)c(=O)[nH]1 [ACYCLOVIR],Control,Human alphaherpesvirus 1 [1],100%
same,Control,Human alphaherpesvirus 1 [2],85%
same,Control,Human alphaherpesvirus 1 [3],0.7%
same,Control,Human alphaherpesvirus 1 [4],6.5%
same,Control,[5],100%
O=c1[nH]c(=O)n([C@H]2C[C@H](O)[C@@H](CO)O2)cc1/C=C/Br [BRIVUDINE],Control,Human alphaherpesvirus 1 [6],3.7%
same,Control,Human alphaherpesvirus 1 [7],0.8%
same,Control,Human alphaherpesvirus 1 [8],52%
same,Control,Human alphaherpesvirus 2 [9],1.7%
same,Control,Human alphaherpesvirus 1 [10],0.4%
same,Control,Human alphaherpesvirus 1 [11],0.1%
O=c1[nH]c(=O)n([C@H]2C[C@H](O)[C@@H](CO)O2)cc1I [IDOXURIDINE],Control,Human alphaherpesvirus 1 [12],22%
same,Control,Human alphaherpesvirus 1 [13],2.6%
same,Control,Human alphaherpesvirus 1 [14],14%
same,Control,Human alphaherpesvirus 2 [15],2.8%
same,Control,Human alphaherpesvirus 2 [16],9.3%
same,Ki,Human alphaherpesvirus 2 [17],3980 nM
same,Control,Human alphaherpesvirus 1 [18],1.6%
same,Control,Human alphaherpesvirus 1 [19],0.27%
same,Ki,Human alphaherpesvirus 1 [20],1840 nM
same,Control,[21],0.1%
